Experimental data taken from EP2140864A2 (H. Lundbeck A/S, priority 2001, dated 2002).

Each molecule was assayed against T1, human 5HT4 receptor (Homo sapiens, UniProt Q13639) (assay: Radioligand binding, 5-HT4 receptor). Conditions: Table 7; read-out: h5HT4 Ki.
T1 construct: expressed in transfected cells
Method: (§1) Other 5-HT Receptors: Other serotonin receptor binding assays were performed according to published methods: rat 5HT2C receptor (Julius et al., 1988); and 5-HT6 (Monsma, et al., 1993). The binding assays using the 5-HT4 receptor were performed according to the procedures described in U.S. Patent No. 5,766,879, the disclosure of which is hereby incorporated by reference in its entirety into this application.
(§2) Binding data were analyzed using nonlinear regression and statistical techniques available in the GraphPAD Prism package (San Diego, CA). Enzymatic assay data were derived from a standard curve of reference compound data.

T1 sequence (Q13639 whole entry): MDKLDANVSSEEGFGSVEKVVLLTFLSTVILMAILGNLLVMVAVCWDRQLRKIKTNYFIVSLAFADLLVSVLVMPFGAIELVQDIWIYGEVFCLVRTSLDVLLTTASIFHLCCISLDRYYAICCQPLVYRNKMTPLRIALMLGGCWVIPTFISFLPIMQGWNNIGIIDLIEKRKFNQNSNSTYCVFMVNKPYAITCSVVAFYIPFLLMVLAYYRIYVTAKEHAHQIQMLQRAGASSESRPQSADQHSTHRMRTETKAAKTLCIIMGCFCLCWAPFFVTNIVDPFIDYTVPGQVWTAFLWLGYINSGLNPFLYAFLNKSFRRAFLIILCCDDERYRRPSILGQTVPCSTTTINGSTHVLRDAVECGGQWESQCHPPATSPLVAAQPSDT

SMILES | Ki [µM]
Cc1ccc(Nc2cc(N3CCCCC3)nc(N(C)CCc3c[nH]c4ccccc34)n2)cc1 [Example 11] | 1.31
CN(CCc1c[nH]c2ccccc12)c1nc(Nc2ccc(F)c(F)c2)cc(N2CCCCC2)n1 [Example 15] | 2.3

Same assay, conditions: Table 8; Ki h5HT4 divided by Ki hGAL3

SMILES | selectivity ratio h5HT4
Cc1ccc(Nc2cc(N3CCCCC3)nc(N(C)CCc3c[nH]c4ccccc34)n2)cc1 [Example 11] | 14
CN(CCc1c[nH]c2ccccc12)c1nc(Nc2ccc(F)c(F)c2)cc(N2CCCCC2)n1 [Example 15] | >30

Each molecule was assayed against T2, human 5HT1E (Homo sapiens, UniProt P28566) (assay: Radioligand binding, 5HT1E receptor ([3H]-serotonin)). Conditions: Table 7; read-out: h5HT1E Ki.
T2 construct: expressed in transfected cells
T2 sequence (P28566 whole entry): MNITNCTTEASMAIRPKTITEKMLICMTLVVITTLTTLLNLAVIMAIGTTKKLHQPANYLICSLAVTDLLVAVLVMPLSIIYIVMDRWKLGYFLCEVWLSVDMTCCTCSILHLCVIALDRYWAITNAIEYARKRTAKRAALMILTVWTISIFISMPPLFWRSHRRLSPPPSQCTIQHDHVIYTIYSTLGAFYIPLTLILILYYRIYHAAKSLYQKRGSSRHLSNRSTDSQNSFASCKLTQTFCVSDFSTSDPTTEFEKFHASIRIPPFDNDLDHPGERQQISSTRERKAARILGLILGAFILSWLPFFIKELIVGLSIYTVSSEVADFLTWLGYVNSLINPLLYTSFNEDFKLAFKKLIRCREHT
Method: (§3) Human 5HT1B, 5HT1D, 5HT1E, 5HT1F, and 5HT7 Receptors: The cell lysates of LM(tk-) clonal cell line stably transfected with the genes encoding each of these 5HT receptor-subtypes were prepared as described above. Cell membranes were suspended in 50mM Tris-HCl buffer (pH 7.4 at 37°C) containing 10 mM MgCl2, 0.2 mM EDTA, 10 µM pargyline, and 0.1% ascorbate. […] Nonspecific binding was determined in the presence of 10 µM serotonin. The bound radioligand was separated by filtration through GF/B filters using a cell harvester.
as §2

SMILES | Ki [µM]
Cc1ccc(Nc2cc(N3CCCCC3)nc(N(C)CCc3c[nH]c4ccccc34)n2)cc1 [Example 11] | 9.17
CN(CCc1c[nH]c2ccccc12)c1nc(Nc2ccc(F)c(F)c2)cc(N2CCCCC2)n1 [Example 15] | 11

Same assay, conditions: Table 8; Ki h5HT1E divided by Ki hGAL3

SMILES | selectivity ratio h5HT1E
Cc1ccc(Nc2cc(N3CCCCC3)nc(N(C)CCc3c[nH]c4ccccc34)n2)cc1 [Example 11] | >100
CN(CCc1c[nH]c2ccccc12)c1nc(Nc2ccc(F)c(F)c2)cc(N2CCCCC2)n1 [Example 15] | >100

What follows are molecules tested against DA transporter (Rattus norvegicus, UniProt P23977) (assay: Binding at native DA transporter). Conditions: Table 7; native transporter, head prints r (rat); read-out: rDA Uptk Ki.
Chain of DA transporter (P23977 whole entry): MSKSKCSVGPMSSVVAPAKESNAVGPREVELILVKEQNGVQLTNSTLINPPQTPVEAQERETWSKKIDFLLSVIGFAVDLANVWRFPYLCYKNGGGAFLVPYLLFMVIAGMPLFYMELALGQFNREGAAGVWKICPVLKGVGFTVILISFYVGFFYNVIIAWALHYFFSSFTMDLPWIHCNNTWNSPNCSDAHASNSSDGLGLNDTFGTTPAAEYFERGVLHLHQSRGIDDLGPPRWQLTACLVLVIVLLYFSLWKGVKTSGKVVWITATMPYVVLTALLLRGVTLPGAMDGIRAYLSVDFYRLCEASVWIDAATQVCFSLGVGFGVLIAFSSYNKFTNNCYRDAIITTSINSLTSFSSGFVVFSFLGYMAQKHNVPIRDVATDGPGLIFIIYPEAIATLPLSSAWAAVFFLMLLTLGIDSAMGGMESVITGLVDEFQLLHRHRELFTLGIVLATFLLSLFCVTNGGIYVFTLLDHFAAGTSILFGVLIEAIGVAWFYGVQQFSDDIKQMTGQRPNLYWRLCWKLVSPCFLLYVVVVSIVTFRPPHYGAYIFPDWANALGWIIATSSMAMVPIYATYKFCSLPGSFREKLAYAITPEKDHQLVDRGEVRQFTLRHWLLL
Method: (§4) The binding properties of the compounds of the present invention were evaluated at one or more cloned receptors or native, tissue-derived transporters, using protocols described below.
(§5) The methods to determine binding affinity at native transporters are described in the following publications: 5HT transporter and NE transporter (Owens et al., 1997), and DA transporter (Javitch et al, 1984).
as §2

SMILES | Ki [µM]
Cc1ccc(Nc2cc(N3CCCCC3)nc(N(C)CCc3c[nH]c4ccccc34)n2)cc1 [Example 11] | 5.43
CN(CCc1c[nH]c2ccccc12)c1nc(Nc2ccc(F)c(F)c2)cc(N2CCCCC2)n1 [Example 15] | 24.5

Same assay, conditions: Table 8; Ki rDA Uptk divided by Ki hGAL3

SMILES | selectivity ratio rDA Uptk
Cc1ccc(Nc2cc(N3CCCCC3)nc(N(C)CCc3c[nH]c4ccccc34)n2)cc1 [Example 11] | >30
CN(CCc1c[nH]c2ccccc12)c1nc(Nc2ccc(F)c(F)c2)cc(N2CCCCC2)n1 [Example 15] | >100

What follows are molecules tested against T3, human 5HT7 (Homo sapiens, UniProt P34969) (assay: Radioligand binding, 5HT7 receptor ([3H]-serotonin)). Conditions: Table 7; read-out: h5HT7 Ki.
T3 construct: expressed in transfected cells
T3 sequence (P34969 1-445 isoform P34969-2): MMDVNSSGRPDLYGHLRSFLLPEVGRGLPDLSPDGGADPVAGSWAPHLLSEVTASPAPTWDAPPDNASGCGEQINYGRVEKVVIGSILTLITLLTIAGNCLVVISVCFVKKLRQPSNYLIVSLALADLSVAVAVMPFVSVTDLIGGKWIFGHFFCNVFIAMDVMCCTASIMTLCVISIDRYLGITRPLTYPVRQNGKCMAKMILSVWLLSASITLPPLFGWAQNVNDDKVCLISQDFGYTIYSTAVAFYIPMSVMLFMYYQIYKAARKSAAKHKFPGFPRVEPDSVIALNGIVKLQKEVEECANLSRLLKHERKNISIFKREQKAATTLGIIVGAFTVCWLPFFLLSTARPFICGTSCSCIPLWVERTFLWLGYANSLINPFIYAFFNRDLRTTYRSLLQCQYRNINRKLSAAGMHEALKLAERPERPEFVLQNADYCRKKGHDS
Method: as §3, §2

SMILES | Ki [µM]
Cc1ccc(Nc2cc(N3CCCCC3)nc(N(C)CCc3c[nH]c4ccccc34)n2)cc1 [Example 11] | 1.01
CN(CCc1c[nH]c2ccccc12)c1nc(Nc2ccc(F)c(F)c2)cc(N2CCCCC2)n1 [Example 15] | 2.53

Same assay, conditions: Table 8; Ki h5HT7 divided by Ki hGAL3

SMILES | selectivity ratio h5HT7
Cc1ccc(Nc2cc(N3CCCCC3)nc(N(C)CCc3c[nH]c4ccccc34)n2)cc1 [Example 11] | 11
CN(CCc1c[nH]c2ccccc12)c1nc(Nc2ccc(F)c(F)c2)cc(N2CCCCC2)n1 [Example 15] | >30

These molecules were tested against T4, dopamine D5 receptor (Homo sapiens, UniProt P21918) (assay: Radioligand binding, dopamine D5 receptor). Conditions: Table 9; read-out: hD5 Ki.
T4 construct: expressed in transfected cells
T4 sequence (P21918 whole entry): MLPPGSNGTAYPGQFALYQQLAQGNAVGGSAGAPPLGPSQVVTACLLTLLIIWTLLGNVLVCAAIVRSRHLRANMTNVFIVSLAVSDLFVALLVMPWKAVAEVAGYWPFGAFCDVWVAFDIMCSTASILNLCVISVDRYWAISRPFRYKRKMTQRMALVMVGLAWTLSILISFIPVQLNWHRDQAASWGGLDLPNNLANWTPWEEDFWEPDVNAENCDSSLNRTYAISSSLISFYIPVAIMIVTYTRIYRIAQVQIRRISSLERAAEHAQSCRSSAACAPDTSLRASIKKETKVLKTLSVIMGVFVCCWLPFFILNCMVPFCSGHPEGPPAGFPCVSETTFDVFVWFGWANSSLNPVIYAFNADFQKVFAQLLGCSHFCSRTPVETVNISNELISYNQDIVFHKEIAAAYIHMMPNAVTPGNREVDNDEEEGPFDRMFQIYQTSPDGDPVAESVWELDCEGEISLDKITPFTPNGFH
From the text: (§6) Other receptors: Cell membranes expressing human dopamine D1, D2, D4 and rat D3 receptors were purchased through BioSignal, Inc. (Montreal, Canada). Binding assays using the histamine H1 receptor; dopamine receptors; and α1A, α1E, and α2 adrenergic receptors may be carried out according to the procedures described in U.S. Patent No. 5,780,485, the disclosure of which is hereby incorporated by reference in its entirety into this application. Binding assays using the dopamine D5 receptor may be carried out according to the procedures described in U.S. Patent No. 5,882,855, the disclosure of which is hereby incorporated by reference in its entirety into this application. Binding assays for the human α1D adrenergic receptor may be carried out according to the procedures described in U.S. Patent No. 6,156,518, the disclosure of which is hereby incorporated by reference in its entirety into this application.
as §2

SMILES | Ki [µM]
Cc1ccc(Nc2cc(N3CCCCC3)nc(N(C)CCc3c[nH]c4ccccc34)n2)cc1 [Example 11] | 0.064
CN(CCc1c[nH]c2ccccc12)c1nc(Nc2ccc(F)c(F)c2)cc(N2CCCCC2)n1 [Example 15] | 0.078

Same assay, conditions: Table 10; Ki hD5 divided by Ki hGAL3

SMILES | selectivity ratio hD5
Cc1ccc(Nc2cc(N3CCCCC3)nc(N(C)CCc3c[nH]c4ccccc34)n2)cc1 [Example 11] | 0.7
CN(CCc1c[nH]c2ccccc12)c1nc(Nc2ccc(F)c(F)c2)cc(N2CCCCC2)n1 [Example 15] | 1

Each molecule was assayed against T5, human 5HT1D (Homo sapiens, UniProt P28221) (assay: Radioligand binding, 5HT1D receptor ([3H]-serotonin)). Conditions: Table 7; read-out: h5HT1D Ki.
T5 construct: expressed in transfected cells
T5 sequence (P28221 whole entry): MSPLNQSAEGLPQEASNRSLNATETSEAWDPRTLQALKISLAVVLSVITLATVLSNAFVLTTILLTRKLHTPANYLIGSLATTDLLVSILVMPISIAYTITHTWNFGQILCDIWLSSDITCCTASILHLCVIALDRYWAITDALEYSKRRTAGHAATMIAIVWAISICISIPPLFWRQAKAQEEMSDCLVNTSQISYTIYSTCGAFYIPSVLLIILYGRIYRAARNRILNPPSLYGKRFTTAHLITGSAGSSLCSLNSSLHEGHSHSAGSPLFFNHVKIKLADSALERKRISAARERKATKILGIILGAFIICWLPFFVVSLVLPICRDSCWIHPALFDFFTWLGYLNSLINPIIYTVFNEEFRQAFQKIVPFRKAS
Method: as §3, §2

SMILES | Ki [µM]
Cc1ccc(Nc2cc(N3CCCCC3)nc(N(C)CCc3c[nH]c4ccccc34)n2)cc1 [Example 11] | 0.102
CN(CCc1c[nH]c2ccccc12)c1nc(Nc2ccc(F)c(F)c2)cc(N2CCCCC2)n1 [Example 15] | 1.27

Same assay, conditions: Table 8; Ki h5HT1D divided by Ki hGAL3

SMILES | selectivity ratio h5HT1D
Cc1ccc(Nc2cc(N3CCCCC3)nc(N(C)CCc3c[nH]c4ccccc34)n2)cc1 [Example 11] | 1
CN(CCc1c[nH]c2ccccc12)c1nc(Nc2ccc(F)c(F)c2)cc(N2CCCCC2)n1 [Example 15] | 17

Each molecule was assayed against 5HT transporter (Rattus norvegicus, UniProt P31652) (assay: Binding at native 5HT transporter). Conditions: Table 7; native transporter, head prints r (rat); read-out: r5HT Uptk Ki.
Chain of 5HT transporter (P31652 whole entry): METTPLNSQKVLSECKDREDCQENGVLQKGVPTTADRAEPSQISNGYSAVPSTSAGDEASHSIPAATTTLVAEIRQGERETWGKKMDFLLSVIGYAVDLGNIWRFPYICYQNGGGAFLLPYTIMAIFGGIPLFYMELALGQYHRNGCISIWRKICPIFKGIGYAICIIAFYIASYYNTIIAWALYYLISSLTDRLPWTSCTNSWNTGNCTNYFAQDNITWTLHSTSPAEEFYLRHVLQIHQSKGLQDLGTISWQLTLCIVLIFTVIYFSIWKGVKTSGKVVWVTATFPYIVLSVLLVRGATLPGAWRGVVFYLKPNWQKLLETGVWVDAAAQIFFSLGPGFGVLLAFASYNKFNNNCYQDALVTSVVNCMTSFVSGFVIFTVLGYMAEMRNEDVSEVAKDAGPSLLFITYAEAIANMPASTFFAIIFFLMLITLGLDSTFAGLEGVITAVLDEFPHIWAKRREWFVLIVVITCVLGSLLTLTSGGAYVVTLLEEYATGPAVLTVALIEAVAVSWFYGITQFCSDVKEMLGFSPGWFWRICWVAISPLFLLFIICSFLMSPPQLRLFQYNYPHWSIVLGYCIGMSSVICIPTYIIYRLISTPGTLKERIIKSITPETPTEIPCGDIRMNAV
Method: as §4, §5, §2

SMILES | Ki [µM]
Cc1ccc(Nc2cc(N3CCCCC3)nc(N(C)CCc3c[nH]c4ccccc34)n2)cc1 [Example 11] | 1.59
CN(CCc1c[nH]c2ccccc12)c1nc(Nc2ccc(F)c(F)c2)cc(N2CCCCC2)n1 [Example 15] | 1.74

Same assay, conditions: Table 8; Ki r5HT Uptk divided by Ki hGAL3

SMILES | selectivity ratio r5HT Uptk
Cc1ccc(Nc2cc(N3CCCCC3)nc(N(C)CCc3c[nH]c4ccccc34)n2)cc1 [Example 11] | 18
CN(CCc1c[nH]c2ccccc12)c1nc(Nc2ccc(F)c(F)c2)cc(N2CCCCC2)n1 [Example 15] | 24

The molecules below were run against T6, human α2B adrenoceptor (Homo sapiens, UniProt P18089) (assay: Radioligand binding, α2B adrenergic receptor). Conditions: Table 9; read-out: hα2B Ki.
T6 construct: expressed in transfected cells
T6 sequence (P18089 1-450): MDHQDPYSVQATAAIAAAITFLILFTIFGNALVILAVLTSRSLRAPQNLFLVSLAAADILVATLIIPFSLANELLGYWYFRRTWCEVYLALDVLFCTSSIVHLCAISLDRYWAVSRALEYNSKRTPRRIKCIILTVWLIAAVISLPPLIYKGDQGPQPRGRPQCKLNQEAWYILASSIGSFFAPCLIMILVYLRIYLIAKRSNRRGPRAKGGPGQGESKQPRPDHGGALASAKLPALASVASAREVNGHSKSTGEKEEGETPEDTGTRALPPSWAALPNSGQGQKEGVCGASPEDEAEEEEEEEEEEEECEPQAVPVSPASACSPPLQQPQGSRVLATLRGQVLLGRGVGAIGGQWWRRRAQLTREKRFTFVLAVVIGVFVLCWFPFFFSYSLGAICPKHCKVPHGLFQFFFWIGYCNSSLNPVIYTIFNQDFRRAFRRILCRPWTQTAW
From the text: as §6, §2

SMILES | Ki [µM]
Cc1ccc(Nc2cc(N3CCCCC3)nc(N(C)CCc3c[nH]c4ccccc34)n2)cc1 [Example 11] | 10.2
CN(CCc1c[nH]c2ccccc12)c1nc(Nc2ccc(F)c(F)c2)cc(N2CCCCC2)n1 [Example 15] | 24.5

Same assay, conditions: Table 10; Ki hα2B divided by Ki hGAL3

SMILES | selectivity ratio hα2B
Cc1ccc(Nc2cc(N3CCCCC3)nc(N(C)CCc3c[nH]c4ccccc34)n2)cc1 [Example 11] | >100
CN(CCc1c[nH]c2ccccc12)c1nc(Nc2ccc(F)c(F)c2)cc(N2CCCCC2)n1 [Example 15] | >100

What follows are molecules tested against T7, human α1B adrenoceptor (Homo sapiens, UniProt P35368) (assay: Radioligand binding, α1B adrenergic receptor). Conditions: Table 9; read-out: hα1B Ki.
T7 construct: expressed in transfected cells
T7 sequence (P35368 1-520): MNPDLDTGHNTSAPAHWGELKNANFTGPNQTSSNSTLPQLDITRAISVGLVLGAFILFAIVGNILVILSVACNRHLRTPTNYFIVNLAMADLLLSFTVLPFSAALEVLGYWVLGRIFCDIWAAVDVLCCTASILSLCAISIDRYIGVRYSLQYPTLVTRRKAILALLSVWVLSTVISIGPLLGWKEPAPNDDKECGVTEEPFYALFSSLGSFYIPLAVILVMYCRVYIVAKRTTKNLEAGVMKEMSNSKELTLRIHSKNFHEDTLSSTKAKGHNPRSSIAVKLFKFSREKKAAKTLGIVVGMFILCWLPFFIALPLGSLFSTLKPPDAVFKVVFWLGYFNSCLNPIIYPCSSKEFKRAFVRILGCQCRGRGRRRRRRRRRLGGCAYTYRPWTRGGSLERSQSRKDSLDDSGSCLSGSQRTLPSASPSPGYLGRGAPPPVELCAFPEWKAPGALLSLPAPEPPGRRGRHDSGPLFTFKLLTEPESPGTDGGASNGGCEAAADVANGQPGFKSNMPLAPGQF

SMILES | Ki [µM]
Cc1ccc(Nc2cc(N3CCCCC3)nc(N(C)CCc3c[nH]c4ccccc34)n2)cc1 [Example 11] | 1.44
CN(CCc1c[nH]c2ccccc12)c1nc(Nc2ccc(F)c(F)c2)cc(N2CCCCC2)n1 [Example 15] | 0.853

Same assay, conditions: Table 10; Ki hα1B divided by Ki hGAL3

SMILES | selectivity ratio hα1B
Cc1ccc(Nc2cc(N3CCCCC3)nc(N(C)CCc3c[nH]c4ccccc34)n2)cc1 [Example 11] | 16
CN(CCc1c[nH]c2ccccc12)c1nc(Nc2ccc(F)c(F)c2)cc(N2CCCCC2)n1 [Example 15] | 12

What follows are molecules tested against T8, human 5HT6 (Homo sapiens, UniProt P50406) (assay: Radioligand binding, 5-HT6 receptor). Conditions: Table 7; read-out: h5HT6 Ki.
T8 construct: expressed in transfected cells
T8 sequence (P50406 whole entry): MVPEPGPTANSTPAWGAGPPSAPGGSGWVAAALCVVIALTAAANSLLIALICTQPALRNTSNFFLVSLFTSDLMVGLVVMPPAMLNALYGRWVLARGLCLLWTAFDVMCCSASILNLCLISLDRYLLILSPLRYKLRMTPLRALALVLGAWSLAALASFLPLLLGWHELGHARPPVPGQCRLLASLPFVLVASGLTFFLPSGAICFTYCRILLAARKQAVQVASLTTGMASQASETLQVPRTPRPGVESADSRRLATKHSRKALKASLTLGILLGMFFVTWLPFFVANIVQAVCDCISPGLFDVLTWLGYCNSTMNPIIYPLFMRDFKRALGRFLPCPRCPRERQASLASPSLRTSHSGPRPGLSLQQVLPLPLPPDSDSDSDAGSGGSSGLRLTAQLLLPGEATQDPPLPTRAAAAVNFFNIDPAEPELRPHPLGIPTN
Method: as §1, §2

SMILES | Ki [µM]
Cc1ccc(Nc2cc(N3CCCCC3)nc(N(C)CCc3c[nH]c4ccccc34)n2)cc1 [Example 11] | 0.8
CN(CCc1c[nH]c2ccccc12)c1nc(Nc2ccc(F)c(F)c2)cc(N2CCCCC2)n1 [Example 15] | 1.46

Same assay, conditions: Table 8; Ki h5HT6 divided by Ki hGAL3

SMILES | selectivity ratio h5HT6
Cc1ccc(Nc2cc(N3CCCCC3)nc(N(C)CCc3c[nH]c4ccccc34)n2)cc1 [Example 11] | 9
CN(CCc1c[nH]c2ccccc12)c1nc(Nc2ccc(F)c(F)c2)cc(N2CCCCC2)n1 [Example 15] | 20

What follows are molecules tested against T9, human dopamine D1 (Homo sapiens, UniProt P21728) (assay: Radioligand binding, dopamine D1 receptor). Conditions: Table 9; read-out: hD1 Ki.
T9 construct: purchased BioSignal, Inc. (Montreal, Canada); host or cells: membranes of cells expressing the receptor
T9 sequence (P21728 whole entry): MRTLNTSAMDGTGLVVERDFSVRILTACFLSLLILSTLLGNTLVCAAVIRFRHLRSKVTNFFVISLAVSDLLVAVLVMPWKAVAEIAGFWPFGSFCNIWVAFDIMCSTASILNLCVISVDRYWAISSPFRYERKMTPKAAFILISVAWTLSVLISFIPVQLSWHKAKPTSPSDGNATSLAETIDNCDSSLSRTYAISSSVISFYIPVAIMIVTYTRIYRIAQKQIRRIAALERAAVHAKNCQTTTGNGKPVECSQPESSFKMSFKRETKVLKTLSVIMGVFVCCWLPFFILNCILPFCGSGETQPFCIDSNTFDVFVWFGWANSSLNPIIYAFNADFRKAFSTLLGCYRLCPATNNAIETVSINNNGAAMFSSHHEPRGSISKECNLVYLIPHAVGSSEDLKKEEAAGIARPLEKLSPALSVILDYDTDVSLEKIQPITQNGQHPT
From the text: as §6, §2

SMILES | Ki [µM]
Cc1ccc(Nc2cc(N3CCCCC3)nc(N(C)CCc3c[nH]c4ccccc34)n2)cc1 [Example 11] | 0.079
CN(CCc1c[nH]c2ccccc12)c1nc(Nc2ccc(F)c(F)c2)cc(N2CCCCC2)n1 [Example 15] | 0.344

Same assay, conditions: Table 10; Ki hD1 divided by Ki hGAL3

SMILES | selectivity ratio hD1
Cc1ccc(Nc2cc(N3CCCCC3)nc(N(C)CCc3c[nH]c4ccccc34)n2)cc1 [Example 11] | 0.9
CN(CCc1c[nH]c2ccccc12)c1nc(Nc2ccc(F)c(F)c2)cc(N2CCCCC2)n1 [Example 15] | 5
